The results in this text go back to US9290451B2 (Hoffmann-La Roche Inc., priority 2011, dated 2016).

For one experiment, the target named is human CB2 receptors (Homo sapiens (Human), UniProt P34972). Put plainly: cAMP assay, CHO cells expressing human CB2 receptors. It is filed as cell-based. As to conditions: CHO cells expressing human CB2, cAMP; read-out: human CB2 EC50. An outline of the steps:
(§1)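 EC50 values come from a TR-FRET cAMP read-out (standard curve 10 μM–0.13 nM cAMP) after 30 min compound exposure at 30 °C in IBMX (1 mM)-containing Krebs Ringer bicarbonate buffer, using CHO cells carrying human CB1 or CB2 receptors.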

Another experiment has as its target human CB1 receptors (Homo sapiens (Human), UniProt P21554). Put plainly: cAMP assay, CHO cells expressing human CB1 receptors. Conditions: CHO cells expressing human CB1, cAMP; read-out: human CB1 EC50. It is filed as cell-based. An outline of the steps:
as §1

Broadly, the EC50 is the concentration that produces a half-maximal response.

human CB2 receptors, sequence (P34972 whole entry): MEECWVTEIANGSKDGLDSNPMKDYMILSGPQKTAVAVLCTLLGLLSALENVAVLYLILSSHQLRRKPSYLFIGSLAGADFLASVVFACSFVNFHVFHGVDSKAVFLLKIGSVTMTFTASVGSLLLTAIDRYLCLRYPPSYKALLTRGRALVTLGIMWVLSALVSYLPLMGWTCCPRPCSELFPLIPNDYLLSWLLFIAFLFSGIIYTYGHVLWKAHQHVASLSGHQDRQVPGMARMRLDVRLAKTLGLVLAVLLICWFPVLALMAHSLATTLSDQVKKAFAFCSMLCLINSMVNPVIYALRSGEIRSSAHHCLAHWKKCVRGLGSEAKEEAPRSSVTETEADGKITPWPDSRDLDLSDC
human CB1 receptors, sequence (P21554 whole entry): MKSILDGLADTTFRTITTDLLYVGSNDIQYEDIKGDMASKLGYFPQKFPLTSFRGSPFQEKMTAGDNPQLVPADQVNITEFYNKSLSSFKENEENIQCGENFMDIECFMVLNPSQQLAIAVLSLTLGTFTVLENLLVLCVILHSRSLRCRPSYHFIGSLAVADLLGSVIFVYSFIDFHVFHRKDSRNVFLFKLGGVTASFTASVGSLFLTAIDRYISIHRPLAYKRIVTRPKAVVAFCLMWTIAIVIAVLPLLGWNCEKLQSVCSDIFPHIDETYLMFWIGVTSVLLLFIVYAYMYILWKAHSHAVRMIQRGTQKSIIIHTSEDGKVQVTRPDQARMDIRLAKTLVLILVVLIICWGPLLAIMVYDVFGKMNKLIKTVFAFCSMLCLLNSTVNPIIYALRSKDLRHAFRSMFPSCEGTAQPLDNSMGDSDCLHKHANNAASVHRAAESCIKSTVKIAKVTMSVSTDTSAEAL

As for `CC(C)(C)[C@H](NC(=O)c1ccc(N2CC(F)(F)C2)c(OCC2CC2)n1)C(=O)N1CC(F)(F)C1` [Example 310, 6-Cyclopropylmethoxy-5-(3,3-difluoro-azetidin-1-yl)-pyridine-2-carboxylic acid [(S)-1-(3,3-difluoro-azetidine-1-carbonyl)-2,2-dimethyl-propyl]-amide], the values for the EC50 at human CB2 receptors and on human CB1 receptors were 14.7 nM and above 10000 nM, respectively.
Regarding `CC(C)C[C@H](NC(=O)c1ccc(N2CC(F)(F)C2)c(OCC2CC2)n1)C(=O)N1CC(F)(F)C1` [Example 311, 6-Cyclopropylmethoxy-5-(3,3-difluoro-azetidin-1-yl)-pyridine-2-carboxylic acid [(S)-1-(3,3-difluoro-azetidine-1-carbonyl)-3-methyl-butyl]-amide], the EC50 on human CB2 receptors was 8.4 nM; at human CB1 receptors, above 10000 nM.
The like results for `CCOC(=O)C(CC)(CC)NC(=O)c1ccc(C(F)(F)F)c(OCC2CC2)n1` [Example 312, 2-[(6-Cyclopropylmethoxy-5-trifluoromethyl-pyridine-2-carbonyl)-amino]-2-ethyl-butyric acid ethyl ester] were, in that order, 2.4 nM and above 10000 nM.
The like results for `CCC(CC)(NC(=O)c1ccc(C2CC2)c(O[C@H](CCO)C(F)(F)F)n1)C(=O)NC` [Example 313, 5-Cyclopropyl-6-((R)-3-hydroxy-1-trifluoromethyl-propoxy)-pyridine-2-carboxylic acid (1-ethyl-1-methylcarbamoyl-propyl)-amide] were, in that order, 981 nM and above 10000 nM.
The like results for `CCC(CC)(NC(=O)c1ccc(C2CC2)c(OCC[C@@H](O)C(F)(F)F)n1)C(=O)NC` [Example 314, 5-Cyclopropyl-6-((R)-4,4,4-trifluoro-3-hydroxy-butoxy)-pyridine-2-carboxylic acid (1-ethyl-1-methylcarbamoyl-propyl)-amide] were, in that order, 16.1 nM and 1260 nM.
For `CC(C)CC(NC(=O)c1ccc(N2CC(F)(F)C2)c(OCC2CC2)n1)c1ccccn1` (stereo not shown) [Example 315, 6-Cyclopropylmethoxy-5-(3,3-difluoro-azetidin-1-yl)-pyridine-2-carboxylic acid (3-methyl-1-pyridin-2-yl-butyl)-amide], the EC50 amounted to 191 nM on human CB2 receptors and 2320 nM on human CB1 receptors.
Consider `CCC(CC)(NC(=O)c1ccc(C(F)(F)F)c(OCC2CC2)n1)C(=O)N1CC(F)(F)C1` [Example 316, 6-Cyclopropylmethoxy-5-trifluoromethyl-pyridine-2-carboxylic acid [1-(3,3-difluoro-azetidine-1-carbonyl)-1-ethyl-propyl]-amide], for which the EC50 on human CB2 receptors is 3.1 nM; on human CB1 receptors, above 10000 nM.
The like results for `CC(C)C[C@H](NC(=O)c1cccc(C(O)c2ccc(F)cc2)n1)C(N)=O` (stereo partly drawn) [Example 317, 6-[(4-Fluoro-phenyl)-hydroxy-methyl]-pyridine-2-carboxylic acid ((S)-1-carbamoyl-3-methyl-butyl)-amide] were, in that order, 24.2 nM and above 10000 nM.
The like results for `Cc1nc([C@H](CC(C)C)NC(=O)c2cccc(C(O)c3ccc(F)cc3)n2)no1` (stereo partly drawn) [Example 318, 6-[(4-Fluoro-phenyl)-hydroxy-methyl]-pyridine-2-carboxylic acid [(S)-3-methyl-1-(5-methyl-[1,2,4]oxadiazol-3-yl)-butyl]-amide] were, in that order, 25.1 nM and above 10000 nM.
The like results for `CCC(CC)(NC(=O)c1ccc(C2CC2)c(O[C@@H](CCO)C(F)(F)F)n1)C(=O)NC` [Example 319, 5-Cyclopropyl-6-((S)-3-hydroxy-1-trifluoromethyl-propoxy)-pyridine-2-carboxylic acid (1-ethyl-1-methylcarbamoyl-propyl)-amide] were, in that order, 344 nM and above 10000 nM.
Turning to `CCC(CC)(NC(=O)c1ccc(C2CC2)c(OCC[C@H](O)C(F)(F)F)n1)C(=O)NC` [Example 320, 5-Cyclopropyl-6-((S)-4,4,4-trifluoro-3-hydroxy-butoxy)-pyridine-2-carboxylic acid (1-ethyl-1-methylcarbamoyl-propyl)-amide], the EC50 on human CB2 receptors is 4.4 nM; at human CB1 receptors, 323 nM.
`CC(C)CC(NC(=O)c1ccc(N2CC(F)(F)C2)c(OCC2CC2)n1)c1cccnn1` (stereo not shown) [Example 321, 6-Cyclopropylmethoxy-5-(3,3-difluoro-azetidin-1-yl)-pyridine-2-carboxylic acid (3-methyl-1-pyridazin-3-yl-butyl)-amide]: the EC50 was 18.9 nM at human CB2 receptors and above 10000 nM at human CB1 receptors.
For the compound `Cc1nc(C(C)(C)NC(=O)c2ccc(N3CC(=O)C3)c(OCC3CC3)n2)no1` [Example 322, 6-Cyclopropylmethoxy-5-(3-oxo-azetidin-1-yl)-pyridine-2-carboxylic acid [1-methyl-1-(5-methyl-[1,2,4]oxadiazol-3-yl)-ethyl]-amide], the figures for the EC50 at human CB2 receptors and on human CB1 receptors were 424 nM and above 10000 nM, respectively.
The like results for `Cc1nc([C@@](C)(NC(=O)c2ccc(C3CC3)c(OCC3CC3)n2)C2CC2)no1` [Example 323, 5-Cyclopropyl-6-cyclopropylmethoxy-pyridine-2-carboxylic acid [(+)-1-cyclopropyl-1-(5-methyl-[1,2,4]oxadiazol-3-yl)-ethyl]-amide] were, in that order, 0.9 nM and 181 nM.
The like results for `Cc1nc([C@](C)(NC(=O)c2ccc(C3CC3)c(OCC3CC3)n2)C2CC2)no1` [Example 324] were, in that order, 4.1 nM and above 10000 nM.
The like results for `CC(C)CC(NC(=O)c1ccc(N2CC(F)(F)C2)c(OCC2CC2)n1)c1cccnc1` (stereo not shown) [Example 325, 6-Cyclopropylmethoxy-5-(3,3-difluoro-azetidin-1-yl)-pyridine-2-carboxylic acid (3-methyl-1-pyridin-3-yl-butyl)-amide] were, in that order, 17.5 nM and above 10000 nM.
Turning to `NC(=O)[C@H](CC1CC1)NC(=O)c1ccc(C2CC2)c(Cc2ccc(F)cc2)n1` [Example 326, 5-Cyclopropyl-6-(4-fluoro-benzyl)-pyridine-2-carboxylic acid ((S)-1-carbamoyl-2-cyclopropyl-ethyl)-amide], the EC50 was 0.2 nM at human CB2 receptors and 59 nM at human CB1 receptors.
`Cc1nc([C@H](CC2CC2)NC(=O)c2ccc(C3CC3)c(Cc3ccc(F)cc3)n2)no1` [Example 327, 5-Cyclopropyl-6-(4-fluoro-benzyl)-pyridine-2-carboxylic acid [(S)-2-cyclopropyl-1-(5-methyl-[1,2,4]oxadiazol-3-yl)-ethyl]-amide]: the EC50 at human CB2 receptors is 1.1 nM; at human CB1 receptors, 13.6 nM.
In the case of `NC(=O)[C@@H](NC(=O)c1ccc(C2CC2)c(OCC2CC2)n1)c1ccc(F)cc1` [Example 328, 5-Cyclopropyl-6-cyclopropylmethoxy-pyridine-2-carboxylic acid [(S)-carbamoyl-(4-fluoro-phenyl)-methyl]-amide], the values for the EC50 at human CB2 receptors and on human CB1 receptors were 3.9 nM and above 10000 nM, respectively.
On to `NC(=O)[C@@H](NC(=O)c1ccc(C2CC2)c(OCC2CC2)n1)c1ccc(Cl)cc1` [Example 329, 5-Cyclopropyl-6-cyclopropylmethoxy-pyridine-2-carboxylic acid [(S)-carbamoyl-(4-chloro-phenyl)-methyl]-amide], for which the figures for the concentration giving a half-maximal response (EC50) on human CB2 receptors and at human CB1 receptors were 21.1 nM and above 10000 nM, respectively.
